Measured values reported in patent US6461997B1, “Triazole sulfones having herbicidal activity” (Monsanto Technology LLC, priority 1999, dated 2002).

Assays:
ECHCG (barnyardgrass) = assay: Pre-emergence herbicidal activity, warm season; assay type: in vivo, Echinochloa crus-galli; conditions: GR80 = lowest tested rate (300, 100, 30, 10 g/ha) with 80% or greater inhibition; approx. 14 days after treating; 30/21° C.
Method in brief: (§1)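 Seeds sown in sterilised fertilised topsoil received surface-applied compound in 50:50 acetone/water, typically at 300, 100, 30 and 10 g/ha, then greenhouse-grown at 30/21° C (warm-season species) or 18/13° C (cool-season species). Percent inhibition versus untreated plants was scored at about 14 days, giving GR80; an asterisk marks activity short of 80% at the top rate.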

SETFA (giant foxtail) [1] = assay: Pre-emergence herbicidal activity, warm season; assay type: in vivo, Setaria faberi; conditions: GR80 = lowest tested rate (300, 100, 30, 10 g/ha) with 80% or greater inhibition; approx. 14 days after treating; 30/21° C.
Method in brief: as §1

[2] = system: GALAP (catchweed bedstraw); assay: Pre-emergence herbicidal activity, cool season; assay type: in vivo, Galium aparine; conditions: lowest tested rate with 80% or greater inhibition; rates 300, 100, 30, 10 g/ha; about 14 days
Method in brief: (§2)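 GR80 values derive from percent inhibition relative to untreated plants, read roughly 14 days after sowing and pre-emergence soil-surface treatment (compound in 50:50 acetone/water; rates typically 10, 30, 100, 300 g/ha). Warm-season weeds grew at 30/21° C day/night, cool-season ones at 18/13° C; an asterisk marks activity without reaching 80% at the highest rate.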

[3] = system: VERPE (creeping speedwell); assay: Pre-emergence herbicidal activity, cool season; assay type: in vivo, Veronica persicaria; conditions: lowest tested rate with 80% or greater inhibition; rates 300, 100, 30, 10 g/ha; about 14 days
Method in brief: as §2

ALOMY (blackgrass) = assay: Pre-emergence herbicidal activity, cool season; assay type: in vivo, Alopecurus myosuroides; conditions: GR80 = lowest tested rate (300, 100, 30, 10 g/ha) with 80% or greater inhibition; approx. 14 days after treating; 18/13° C.
Method in brief: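 Activity is expressed as the rate giving 80% inhibition, with 300, 100, 30 and 10 g/ha typically tested. An asterisk marks activity short of 80% at the top rate. Warm-season grasses were held at 30/21 °C; cool-season blackgrass and wild buckwheat at 18/13 °C; scoring at about 14 days.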

[4] = system: SORHA (johnsongrass (seedling)); assay: Pre-plant incorporated (PPI) herbicidal activity, warm season; assay type: in vivo, Sorghum halepense; conditions: for inhibition at 10 g/ha / inhibition at 30 g/ha / inhibition at 100 g/ha / inhibition at 300 g/ha / inhibition at 900 g/ha: Sorghum halepense, PPI application, read-out: Percent inhibition SORHA; for PPI activity GR80, SORHA: pre-plant incorporated, lowest tested rate with 80% or greater inhibition, about 14 days
Method in brief: (§3)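 Soil-incorporated application: seeds sat beneath a cover layer into which the compound had been sprayed and mixed. Greenhouse growth used a 30/21° C or 18/13° C day/night regime depending on season type. Around 14 days later, inhibition was estimated as a percentage of untreated growth.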

SETFA (giant foxtail) [5] = assay: as above; assay type: in vivo, Setaria faberi; conditions: for inhibition at 10 g/ha / inhibition at 30 g/ha / inhibition at 100 g/ha / inhibition at 300 g/ha / inhibition at 900 g/ha: Setaria faberi, PPI application, read-out: Percent inhibition SETFA; for PPI activity GR80, SETFA: pre-plant incorporated, lowest tested rate with 80% or greater inhibition, about 14 days
Method in brief: as §3

DIGSA (large crabgrass) = assay: as above; assay type: in vivo, Digitaria sanguinalis; conditions: for inhibition at 10 g/ha / inhibition at 30 g/ha / inhibition at 100 g/ha / inhibition at 300 g/ha / inhibition at 900 g/ha: Digitaria sanguinalis, PPI application, read-out: Percent inhibition DIGSA; for PPI activity GR80, DIGSA: pre-plant incorporated, lowest tested rate with 80% or greater inhibition, about 14 days
Method in brief: as §3

SINAR (wild mustard) = assay: Pre-plant incorporated (PPI) herbicidal activity, cool season; assay type: in vivo, Sinapis arvensis; conditions: for inhibition at 10 g/ha / inhibition at 30 g/ha / inhibition at 100 g/ha / inhibition at 300 g/ha / inhibition at 900 g/ha: Brassica, weed, PPI application, read-out: Percent inhibition SINAR; for PPI activity GR80, SINAR: pre-plant incorporated, lowest tested rate with 80% or greater inhibition, about 14 days
Method in brief: as §3

corn (ZEAMX) = assay: Selectivity test, PPI, warm season crop; assay type: in vivo, Zea mays; conditions: Zea mays, PPI application, read-out: Percent inhibition ZEAMX
Method in brief: (§4)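 Percent inhibition relative to untreated controls, assessed roughly 14 days post-planting. Seeds were covered with a soil layer into which solvent-borne compound had been sprayed and mixed. Plants were then grown at 30/21° C. (warm season) or 18/13° C. (cool season) day/night regimes.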

barley (HORVX) = assay: Selectivity test, PPI, cool season crop; assay type: in vivo, Hordeunm vulgare; conditions: Hordeum vulgare, PPI application, read-out: Percent inhibition HORVX
Method in brief: as §4

Compound	Pre-emergence activity (GR80) ECHCG (ECHCG (barnyardgrass)) [g/ha]	Pre-emergence activity (GR80) SETFA (SETFA (giant foxtail) [1]) [g/ha]	Pre-emergence activity GR80, GALAP [2] [g/ha]	Pre-emergence activity GR80, VERPE [3] [g/ha]	Pre-emergence activity (GR80) ALOMY (ALOMY (blackgrass)) [g/ha]	inhibition at 10 g/ha [4] [%]	inhibition at 30 g/ha [4] [%]	inhibition at 100 g/ha [4] [%]	inhibition at 300 g/ha [4] [%]	inhibition at 900 g/ha [4] [%]	PPI activity GR80, SORHA [4] [g/ha]	inhibition at 10 g/ha (SETFA (giant foxtail) [5]) [%]	inhibition at 30 g/ha (SETFA (giant foxtail) [5]) [%]	inhibition at 100 g/ha (SETFA (giant foxtail) [5]) [%]	inhibition at 300 g/ha (SETFA (giant foxtail) [5]) [%]	inhibition at 900 g/ha (SETFA (giant foxtail) [5]) [%]	PPI activity GR80, SETFA (SETFA (giant foxtail) [5]) [g/ha]	inhibition at 10 g/ha (DIGSA (large crabgrass)) [%]	inhibition at 30 g/ha (DIGSA (large crabgrass)) [%]	inhibition at 100 g/ha (DIGSA (large crabgrass)) [%]	further results
C=CCC(F)(F)S(=O)(=O)c1ncn(C(=O)N(CC)CC)n1 [Example 17, 1-(N,N-diethylcarbamoyl)-3-[(1,1-difluoro-3-butenyl)sulfonyl]-1,2,4-triazole]	100	100	100	100	100	95	60	100	100	100	10	100	100	100	100	100	10	60	80	80	inhibition at 300 g/ha (DIGSA (large crabgrass)): 80%; inhibition at 900 g/ha (DIGSA (large crabgrass)): 100%; PPI activity GR80, DIGSA (DIGSA (large crabgrass)): 30 g/ha; inhibition at 10 g/ha (SINAR (wild mustard)): 70%; inhibition at 30 g/ha (SINAR (wild mustard)): 70%; inhibition at 100 g/ha (SINAR (wild mustard)): 90%; inhibition at 300 g/ha (SINAR (wild mustard)): 100%; inhibition at 900 g/ha (SINAR (wild mustard)): 100%; PPI activity GR80, SINAR (SINAR (wild mustard)): 30 g/ha; inhibition at 10 g/ha (corn (ZEAMX)): 0%; inhibition at 30 g/ha (corn (ZEAMX)): 0%; inhibition at 100 g/ha (corn (ZEAMX)): 20%; inhibition at 300 g/ha (corn (ZEAMX)): 30%; inhibition at 900 g/ha (corn (ZEAMX)): 95%; inhibition at 10 g/ha (barley (HORVX)): 0%; inhibition at 30 g/ha (barley (HORVX)): 0%; inhibition at 100 g/ha (barley (HORVX)): 10%; inhibition at 300 g/ha (barley (HORVX)): 30%; inhibition at 900 g/ha (barley (HORVX)): 60%
C=C(C)CC(F)(F)S(=O)(=O)c1ncn(C(=O)N(CC)CC)n1 [Example 18]	100	100	300	300	300	100	100	100	100	100	300	100	90	90	100	100	100	20	80	80	inhibition at 300 g/ha (DIGSA (large crabgrass)): 100%; inhibition at 900 g/ha (DIGSA (large crabgrass)): 100%; PPI activity GR80, DIGSA (DIGSA (large crabgrass)): 30 g/ha; inhibition at 10 g/ha (SINAR (wild mustard)): 100%; inhibition at 30 g/ha (SINAR (wild mustard)): 100%; inhibition at 100 g/ha (SINAR (wild mustard)): 80%; inhibition at 300 g/ha (SINAR (wild mustard)): 100%; inhibition at 900 g/ha (SINAR (wild mustard)): 100%; PPI activity GR80, SINAR (SINAR (wild mustard)): 10 g/ha; inhibition at 10 g/ha (corn (ZEAMX)): 0%; inhibition at 30 g/ha (corn (ZEAMX)): 0%; inhibition at 100 g/ha (corn (ZEAMX)): 10%; inhibition at 300 g/ha (corn (ZEAMX)): 15%; inhibition at 900 g/ha (corn (ZEAMX)): 20%; inhibition at 10 g/ha (barley (HORVX)): 0%; inhibition at 30 g/ha (barley (HORVX)): 0%; inhibition at 100 g/ha (barley (HORVX)): 0%; inhibition at 300 g/ha (barley (HORVX)): 10%; inhibition at 900 g/ha (barley (HORVX)): 60%
